Assay results from the supplement of paper PMC10307832.

How the values were obtained:
Test in all cases: relative viability (nuclei count vs DMSO), 5 days (fraction); higher = more cells survive
[1] = compound: C1COCCN1C2=NC(=NC3=C2OC4=C3C=CC=N4)C5=CC(=CC=C5)NC(=O)C6=CN=C(C=C6)N + CC1(C)CCC(c2ccc(Cl)cc2)=C(CN2CCN(c3ccc(C(=O)NS(=O)(=O)c4ccc(N[C@H](CCN5CCOCC5)CSc5ccccc5)c(S(=O)(=O)C(F)(F)F)c4)cc3)CC2)C1 [Navitoclax] (partner 0.5 µM)
In short: (§1)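 Nuclei were stained with Hoechst during a one-step fixation (final 0.05% Triton X-100, 1% formaldehyde, 1 ug/ml Hoechst) carried out 5 days after dosing, then counted on 4× images. The cells, lung cancer lines in 1536-well plates, had been dosed by pin tool the day after seeding with one drug alone or a fixed anchor-drug dose plus five library-drug doses (not always all listed) in √10 steps. Relative viability is the nuclei count in treated wells divided by that in vehicle wells, and each value is the median of duplicate plates.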

[2] = compound: Nc1ccccc1NC(=O)c1ccc(CNC(=O)OCc2cccnc2)cc1 [Entinostat] + Cc1nc(NC(=O)N2CCC[C@H]2C(N)=O)sc1-c1ccnc(C(C)(C)C(F)(F)F)c1 [Alpelisib] (partner 2 µM)
In short: as §1

[3] = compound: Nc1ccccc1NC(=O)c1ccc(CNC(=O)OCc2cccnc2)cc1 [Entinostat] + Cc1cc(Nc2cc(N3CCN(C)CC3)nc(Sc3ccc(NC(=O)C4CC4)cc3)n2)n[nH]1 [Tozasertib] (partner 0.1 µM)
In short: as §1

[4] = compound: Nc1ccccc1NC(=O)c1ccc(CNC(=O)OCc2cccnc2)cc1 [Entinostat] + CC1(C)CCC(c2ccc(Cl)cc2)=C(CN2CCN(c3ccc(C(=O)NS(=O)(=O)c4ccc(N[C@H](CCN5CCOCC5)CSc5ccccc5)c(S(=O)(=O)C(F)(F)F)c4)cc3)CC2)C1 [Navitoclax] (partner 0.5 µM)
In short: as §1

| Cell Line | relative viability ([1]; first compound 0.02 µM) | relative viability ([1]; first compound 0.06325 µM) | relative viability ([1]; first compound 0.2 µM) | relative viability ([1]; first compound 0.6325 µM) | relative viability ([1]; first compound 2 µM) | relative viability ([2]; first compound 0.02 µM) | relative viability ([2]; first compound 0.06325 µM) | relative viability ([2]; first compound 0.2 µM) | relative viability ([2]; first compound 0.6325 µM) | relative viability ([2]; first compound 2 µM) | relative viability ([3]; first compound 0.02 µM) | relative viability ([3]; first compound 0.06325 µM) | relative viability ([3]; first compound 0.2 µM) | relative viability ([3]; first compound 0.6325 µM) | relative viability ([3]; first compound 2 µM) | relative viability ([4]; first compound 0.02 µM) | relative viability ([4]; first compound 0.06325 µM) | relative viability ([4]; first compound 0.2 µM) | relative viability ([4]; first compound 0.6325 µM) | relative viability ([4]; first compound 2 µM) |
| --- | --- | --- | --- | --- | --- | --- | --- | --- | --- | --- | --- | --- | --- | --- | --- | --- | --- | --- | --- | --- |
| NCI-H2009 | 1.19 | 1.2 | 1.12 | 1.05 | 0.954 | 1.21 | 1.13 | 1.15 | 0.884 | 0.721 | 0.713 | 0.753 | 0.647 | 0.452 | 0.336 | 1.21 | 1.19 | 1.13 | 0.816 | 0.52 |
| NCI-H2023 | 1.05 | 1.03 | 0.967 | 0.904 | 0.444 | 0.475 | 0.5 | 0.319 | 0.165 | 0.128 | 0.218 | 0.221 | 0.138 | 0.0768 | 0.0712 | 0.916 | 0.692 | 0.496 | 0.163 | 0.138 |
| NCI-H2085 | 1.15 | 1.12 | 1.05 | 1.1 | 0.602 | 0.947 | 0.946 | 0.766 | 0.634 | 0.502 | 0.788 | 0.618 | 0.612 | 0.431 | 0.365 | 1 | 1.06 | 1.04 | 0.801 | 0.604 |
| NCI-H2087 | 1.02 | 1.03 | 0.925 | 0.918 | 0.608 | 0.983 | 0.954 | 0.806 | 0.64 | 0.54 | 0.222 | 0.219 | 0.177 | 0.116 | 0.0873 | 0.785 | 0.853 | 0.724 | 0.586 | 0.337 |
| NCI-H2126 | 0.872 | 0.828 | 0.9 | 0.839 | 0.763 | 0.738 | 0.708 | 0.614 | 0.46 | 0.317 | 0.812 | 0.758 | 0.614 | 0.38 | 0.262 | 0.849 | 0.833 | 0.855 | 0.548 | 0.396 |
| NCI-H2170 | 0.674 | 0.605 | 0.673 | 0.525 | 0.413 | 0.77 | 0.747 | 0.771 | 0.521 | 0.345 | 0.685 | 0.677 | 0.461 | 0.391 | 0.172 | 0.626 | 0.553 | 0.502 | 0.33 | 0.196 |
| NCI-H2228 | 0.959 | 1.31 | 0.783 | 1.3 | 0.348 | 0.785 | 0.608 | 0.473 | 0.325 | 0.273 | 0.258 | 0.142 | 0.207 | 0.0934 | 0.11 | 1.03 | 0.758 | 0.52 | 0.365 | 0.349 |
| NCI-H2347 | 0.854 | 0.895 | 0.815 | 0.747 | 0.528 | 1.09 | 0.99 | 0.865 | 0.391 | 0.343 | 0.355 | 0.382 | 0.345 | 0.175 | 0.18 | 0.839 | 0.746 | 0.514 | 0.19 | 0.227 |
